# Tests used:
# [1] = Half life in ICR mouse at 10 mg/kg, po measured upto 24 hrs by LC-MS/MS analysis; type: ADME, organism-based; conditions: in vivo
# [2] = Cmax in ICR mouse at 10 mg/kg, po measured upto 24 hrs by LC-MS/MS analysis; type: ADME, organism-based; parameters: dose 10 mg/kg, time < 24 hrs, route po; conditions: in vivo
# [3] = Cmax in ICR mouse at 2 mg/kg, iv measured upto 24 hrs by LC-MS/MS analysis; type: ADME, organism-based; parameters: time < 24 hrs, dose 2 mg/kg, route iv; conditions: in vivo
# [4] = AUC (0 to t) in ICR mouse at 10 mg/kg, po measured upto 24 hrs by LC-MS/MS analysis; type: ADME, organism-based; parameters: dose 10 mg/kg, time < 24 hrs, route po; conditions: in vivo
# [5] = Tmax in ICR mouse at 10 mg/kg, po measured upto 24 hrs by LC-MS/MS analysis; type: ADME, organism-based; conditions: in vivo
# [6] = MRT (0 to t) in ICR mouse at 10 mg/kg, po measured upto 24 hrs by LC-MS/MS analysis; type: ADME, organism-based; conditions: in vivo
# [7] = Half life in ICR mouse at 2 mg/kg, iv measured upto 24 hrs by LC-MS/MS analysis; type: ADME, organism-based; conditions: in vivo
# [8] = Metabolic stability in mouse liver microsomes assessed as half life incubated upto 60 mins in presence of NADPH by LC-MS/MS analysis; type: ADME, Microsome; conditions: 1 h
# [9] = Observed clearance in ICR mouse at 2 mg/kg, iv measured upto 24 hrs by LC-MS/MS analysis; type: ADME, organism-based; conditions: in vivo
# [10] = AUC (0 to infinity) in ICR mouse at 2 mg/kg, iv measured upto 24 hrs by LC-MS/MS analysis; type: ADME, organism-based; parameters: time < 24 hrs, dose 2 mg/kg, route iv; conditions: in vivo
# [11] = Oral bioavailability in ICR mouse at 10 mg/kg measured upto 24 hrs by LC-MS/MS analysis; type: ADME, organism-based; conditions: in vivo
# [12] = Tmax in ICR mouse at 2 mg/kg, iv measured upto 24 hrs by LC-MS/MS analysis; type: ADME, organism-based; conditions: in vivo
# [13] = AUC (0 to infinity) in ICR mouse at 10 mg/kg, po measured upto 24 hrs by LC-MS/MS analysis; type: ADME, organism-based; parameters: time < 24 hrs, dose 10 mg/kg, route po; conditions: in vivo
# [14] = AUC (0 to t) in ICR mouse at 2 mg/kg, iv measured upto 24 hrs by LC-MS/MS analysis; type: ADME, organism-based; parameters: time < 24 hrs, dose 2 mg/kg, route iv; conditions: in vivo
# [15] = MRT (0 to t) in ICR mouse at 2 mg/kg, iv measured upto 24 hrs by LC-MS/MS analysis; type: ADME, organism-based; conditions: in vivo
smiles,measurement,setting,value
C[C@@H](Oc1cc(NC(=O)c2cn(CCN3CCOCC3)c3cc(Br)c(C=O)nc23)ncc1C#N)c1c(Cl)cncc1Cl,half-life,[1],196 min
same,Cmax,[2],13.4 ng/mL
same,Cmax,[3],1640 ng/mL
same,AUC(0-t) at 24 h,[4],29.5 ng·h/mL
same,Tmax,[5],23.4 min
same,MRT last at 24 h,[6],104 min
same,half-life,[7],45.6 min
same,t1/2,[8],696 min
same,clearance,[9],49.7 mL/min/kg
same,AUC(0-inf),[10],704 ng·h/mL
same,bioavailability,[11],1.1%
same,Tmax,[12],4.98 min
same,AUC(0-inf),[13],38.6 ng·h/mL
same,AUC(0-t) at 24 h,[14],702 ng·h/mL
same,MRT last at 24 h,[15],29.4 min
